From US9534300B2, “Water soluble substituted imidazolines as corrosion inhibitors for ferrous metals” (Ecolab USA, Inc., priority 2014, dated 2017)

Experiment: Solubility in water of synthesized substituted imidazolines
Type: physicochemical

In the case of `CCCCCCCC1=NCCN1CCNCCC(=O)O` [No. 6, 3-((2-(2-heptyl-4,5-dihydro-1H-imidazol-1-yl)ethyl)amino)propanoic acid], the Solubility in water is reported as “Yes Yes Yes”.
For `CCCCCCCCCCCC1=NCCN1CCNCCC(=O)O` [No. 7, 3-((2-(2-undecyl-4,5-dihydro-1H-imidazol-1-yl)ethyl)amino)propanoic acid], the Solubility in water was “Yes Yes Yes”.
For `CCCCCC1=NCCN1CCNCCC(=O)O` [No. 5, 3-((2-(2-pentyl-4,5-dihydro-1H-imidazol-1-yl)ethyl)amino)propanoic acid], the Solubility in water was “Yes Yes Yes”.
